Patent publication US20180104224A1, “PHARMACEUTICAL COMPOSITIONS COMPRISING ANTIBACTERIAL AGENTS” (priority 2014, published 2018)
One block for each compound: values may come before it.

Columns and labels:
P. aeruginosa R 70 = test: MIC determination in Muller Hinton Agar (CLSI);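 on MIC (mcg/ml) of carbapenem in presence of [A] at 4 mcg/ml: MIC read as lowest concentration giving complete growth inhibition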;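 on MIC (mcg/ml) of carbapenem in presence of [B] at 4 mcg/ml: MIC read as lowest concentration giving complete growth inhibition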; format: cell-based, Pseudomonas aeruginosa; details: for MIC: Pseudomonas aeruginosa, R70, 18 h, agent alone, P. aeruginosa R 70 [Reduced OprD + increased efflux]; for MIC (mcg/ml) of carbapenem in presence of [A] at 4 mcg/ml: in presence of Compound A at 4 mcg/ml; for MIC (mcg/ml) of carbapenem in presence of [A] at 4 mcg/ml / MIC (mcg/ml) of carbapenem in presence of [B] at 4 mcg/ml: P. aeruginosa R 70; for MIC (mcg/ml) of carbapenem in presence of [B] at 4 mcg/ml: in presence of Compound B at 4 mcg/ml
Procedure: (§1) The antibacterial activity of combinations according to the invention against resistant bacterial strains was investigated. Minimum Inhibitory Concentration (MIC) determination for the combinations according to invention was carried out in Muller Hinton Agar (MHA) (BD, USA) according to Clinical and Laboratory Standards Institute (CLSI) recommendations, (Clinical and Laboratory Standards Institute (CLSI), Performance Standards for Antimicrobial Susceptibility Testing, 20th Informational Supplement, M 100-S20, Volume 30, No. 1, 2010). In short, the test strains were adjusted to deliver about 10^4 CFU per spot with a multipoint inoculator (Applied Quality Services, UK). The plates were pored with MHA containing doubling concentration range of the test combinations according to invention. The plates were inoculated and were incubated at 35° C. for 18 hours.

P. aeruginosa 1405 = test: MIC determination in Muller Hinton Agar (CLSI); format: cell-based, Pseudomonas aeruginosa; details: for MIC (mcg/ml) of carbapenem in presence of [A] at 4 mcg/ml: in presence of Compound A at 4 mcg/ml; for MIC (mcg/ml) of carbapenem in presence of [B] at 4 mcg/ml: in presence of Compound B at 4 mcg/ml;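 on all read-outs here: MIC read as lowest concentration giving complete growth inhibition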
Procedure: as §1

P. aeruginosa J 154 = test: MIC determination in Muller Hinton Agar (CLSI); format: cell-based, Pseudomonas aeruginosa; details: for MIC: Pseudomonas aeruginosa, J154, agent alone, P. aeruginosa J 154 [Reduced OprD]; for MIC (mcg/ml) of carbapenem in presence of [A] at 4 mcg/ml: in presence of Compound A at 4 mcg/ml; for MIC (mcg/ml) of carbapenem in presence of [A] at 4 mcg/ml / MIC (mcg/ml) of carbapenem in presence of [B] at 4 mcg/ml: P. aeruginosa J 154; for MIC (mcg/ml) of carbapenem in presence of [B] at 4 mcg/ml: in presence of Compound B at 4 mcg/ml
Procedure: as §1

P. aeruginosa 2779 = test: MIC determination in Muller Hinton Agar (CLSI); format: cell-based, Pseudomonas aeruginosa; details: for MIC (mcg/ml) of carbapenem in presence of [A] at 4 mcg/ml: in presence of Compound A at 4 mcg/ml; for MIC (mcg/ml) of carbapenem in presence of [B] at 4 mcg/ml: in presence of Compound B at 4 mcg/ml;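 on all read-outs here: MIC read as lowest concentration giving complete growth inhibition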
Procedure: as §1

[1] = tested on: Pseudomonas aeruginosa R70; test: Time kill study; format: cell-based; details: P. aeruginosa R70; for effect on bacterial counts through out the duration of the study (in words): when used alone
Procedure: (§2) The synergistic killing effect of the combinations according to invention was studied by performing time kill studies. In a typical time kill study, the freshly grown cultures were diluted to the required cell density (initial starting inoculum) in Cation adjusted Muller Hinton broth medium (BD, USA). The antibacterial agents (either alone or in combination) at the required concentrations were added into the culture-containing medium. The samples were incubated under shaking condition (120 rpm) at 37° C. Enumeration of viable bacterial count was done every 2 hour by diluting in normal saline and plating on to the Tryptic Soya Agar plates (BD, USA). The plates were incubated for 24 hours to arrive at the viable bacterial count. The results are expressed in terms of Log10 CFU per ml. In general, the decrease of 1 Log10 CFU/ml, corresponds to 90% killing of bacteria.

[2] = tested on: Pseudomonas aeruginosa 1405; test: Time kill study; format: cell-based; details: P. aeruginosa 1405; for effect on bacterial counts through out the duration of the study (in words): when used alone
Procedure: as §2

[3] = tested on: highly resistant strains of Pseudomonas aeruginosa; test: MIC determination, all strains; format: cell-based; details: highly resistant strains of P. aeruginosa
Procedure: as §1
The results on antibacterial activity of a carbapenem antibacterial agent selected from imipenem, meropenem, ertapenem and doripenem alone and in combination with Compound A or Compound B, against highly resistant strains of Pseudomonas aeruginosa are given in Table 1. […] For example, P. aeruginosa 2779 harbors resistance due to increased AmpC expression (300 times) and increased efflux; P. aeruginosa 1405 harbors resistance due to increased AmpC expression (600 times), reduced OprD expression and increased efflux; P. aeruginosa R 70 harbors resistance due to reduced OprD expression and increased efflux; and P. aeruginosa J 154 harbors resistance due to reduced OprD.

[4] = Table 4, single agent 16 mcg/ml
[5] = Table 5, single agent 16 mcg/ml
[6] = Table 2, single agent 16 mcg/ml
[7] = Table 3, single agent 16 mcg/ml
[8] = in presence of Compound A or Compound B

Compound: C[C@@H](O)[C@H]1C(=O)N2C(C(=O)O)=C(S[C@@H]3CN[C@H](C(=O)Nc4cccc(C(=O)O)c4)C3)[C@H](C)[C@H]12 [Ertapenem, ertapenem]
MIC (P. aeruginosa R 70): > 128 µg/mL
MIC (mcg/ml) of carbapenem in presence of [A] at 4 mcg/ml (P. aeruginosa R 70): >128 µg/mL
MIC (mcg/ml) of carbapenem in presence of [B] at 4 mcg/ml (P. aeruginosa R 70): ≤0.12 µg/mL
MIC (mcg/ml) of carbapenem in presence of [A] at 4 mcg/ml (P. aeruginosa 1405): 128 µg/mL
MIC (mcg/ml) of carbapenem in presence of [B] at 4 mcg/ml (P. aeruginosa 1405): 64 µg/mL
MIC (P. aeruginosa J 154): > 128 µg/mL
MIC (mcg/ml) of carbapenem in presence of [A] at 4 mcg/ml (P. aeruginosa J 154): >128 µg/mL
MIC (mcg/ml) of carbapenem in presence of [B] at 4 mcg/ml (P. aeruginosa J 154): 128 µg/mL
MIC (mcg/ml) of carbapenem in presence of [A] at 4 mcg/ml (P. aeruginosa 2779): 4 µg/mL
MIC (mcg/ml) of carbapenem in presence of [B] at 4 mcg/ml (P. aeruginosa 2779): 4 µg/mL
effect on bacterial counts through out the duration of the study (in words) [1]: failed to reduce the bacterial counts
Bacterial count (Log10 CFU/ml) 0 hour [1, 4]: 6.62 Log10 CFU/ml
Bacterial count (Log10 CFU/ml) 2 hour [1, 4]: 6.87 Log10 CFU/ml
Bacterial count (Log10 CFU/ml) 4 hour [1, 4]: 7.47 Log10 CFU/ml
Bacterial count (Log10 CFU/ml) 6 hour [1, 4]: 8.16 Log10 CFU/ml
Bacterial count (Log10 CFU/ml) 0 hour [1, 5]: 6.44 Log10 CFU/ml
Bacterial count (Log10 CFU/ml) 2 hour [1, 5]: 6.46 Log10 CFU/ml
Bacterial count (Log10 CFU/ml) 4 hours [1, 5]: 7.17 Log10 CFU/ml
Bacterial count (Log10 CFU/ml) 6 hour [1, 5]: 7.13 Log10 CFU/ml
effect on bacterial counts through out the duration of the study (in words) [2]: failed to reduce the bacterial counts
Bacterial count (Log10 CFU/ml) 0 hour [2, 6]: 6.84 Log10 CFU/ml
Bacterial count (Log10 CFU/ml) 2 hour [2, 6]: 6.90 Log10 CFU/ml
Bacterial count (Log10 CFU/ml) 4 hour [2, 6]: 7.87 Log10 CFU/ml
Bacterial count (Log10 CFU/ml) 6 hour [2, 6]: 7.65 Log10 CFU/ml
Bacterial count (Log10 CFU/ml) 0 hour [2, 7]: 6.81 Log10 CFU/ml
Bacterial count (Log10 CFU/ml) 2 hour [2, 7]: 6.90 Log10 CFU/ml
Bacterial count (Log10 CFU/ml) 4 hour [2, 7]: 7.87 Log10 CFU/ml
Bacterial count (Log10 CFU/ml) 6 hour [2, 7]: 7.65 Log10 CFU/ml
MIC values (in words) [3, 8]: decreased significantly
MIC values (in words) ([3]; when used alone): higher MIC values

MIC (P. aeruginosa R 70): > 32 µg/mL
MIC (mcg/ml) of carbapenem in presence of [A] at 4 mcg/ml (P. aeruginosa R 70): 16 µg/mL
MIC (mcg/ml) of carbapenem in presence of [B] at 4 mcg/ml (P. aeruginosa R 70): ≤0.12 µg/mL
MIC (mcg/ml) of carbapenem in presence of [A] at 4 mcg/ml (P. aeruginosa 1405): 4 µg/mL
MIC (mcg/ml) of carbapenem in presence of [B] at 4 mcg/ml (P. aeruginosa 1405): 0.12 µg/mL
MIC (P. aeruginosa J 154): 16 µg/mL
MIC (mcg/ml) of carbapenem in presence of [A] at 4 mcg/ml (P. aeruginosa J 154): 8 µg/mL
MIC (mcg/ml) of carbapenem in presence of [B] at 4 mcg/ml (P. aeruginosa J 154): <0.25 µg/mL
MIC (mcg/ml) of carbapenem in presence of [A] at 4 mcg/ml (P. aeruginosa 2779): 0.12 µg/mL
MIC (mcg/ml) of carbapenem in presence of [B] at 4 mcg/ml (P. aeruginosa 2779): 0.12 µg/mL
MIC values (in words) [3, 8]: decreased significantly
MIC values (in words) ([3]; when used alone): higher MIC values
Compound: C[C@@H](O)[C@H]1C(=O)N2C(C(=O)O)=C(S[C@@H]3CN[C@H](C(=O)N(C)C)C3)[C@H](C)[C@H]12 [Meropenem, meropenem]
effect on bacterial counts through out the duration of the study (in words) [1]: failed to reduce the bacterial counts
Bacterial count (Log10 CFU/ml) 0 hour ([1]; Table 4, single agent 4 mcg/ml): 6.62 Log10 CFU/ml
Bacterial count (Log10 CFU/ml) 2 hour ([1]; Table 4, single agent 4 mcg/ml): 7.07 Log10 CFU/ml
Bacterial count (Log10 CFU/ml) 4 hour ([1]; Table 4, single agent 4 mcg/ml): 6.84 Log10 CFU/ml
Bacterial count (Log10 CFU/ml) 6 hour ([1]; Table 4, single agent 4 mcg/ml): 8.36 Log10 CFU/ml
Bacterial count (Log10 CFU/ml) 0 hour ([1]; Table 5, single agent 4 mcg/ml): 6.44 Log10 CFU/ml
Bacterial count (Log10 CFU/ml) 2 hour ([1]; Table 5, single agent 4 mcg/ml): 6.14 Log10 CFU/ml
Bacterial count (Log10 CFU/ml) 4 hours ([1]; Table 5, single agent 4 mcg/ml): 7.07 Log10 CFU/ml
Bacterial count (Log10 CFU/ml) 6 hour ([1]; Table 5, single agent 4 mcg/ml): 7.3 Log10 CFU/ml
effect on bacterial counts through out the duration of the study (in words) [2]: failed to reduce the bacterial counts
Bacterial count (Log10 CFU/ml) 0 hour ([2]; Table 2, single agent 4 mcg/ml): 6.84 Log10 CFU/ml
Bacterial count (Log10 CFU/ml) 2 hour ([2]; Table 2, single agent 4 mcg/ml): 5.95 Log10 CFU/ml
Bacterial count (Log10 CFU/ml) 4 hour ([2]; Table 2, single agent 4 mcg/ml): 6.89 Log10 CFU/ml
Bacterial count (Log10 CFU/ml) 6 hour ([2]; Table 2, single agent 4 mcg/ml): 7.02 Log10 CFU/ml
Bacterial count (Log10 CFU/ml) 0 hour ([2]; Table 3, single agent 4 mcg/ml): 6.81 Log10 CFU/ml
Bacterial count (Log10 CFU/ml) 2 hour ([2]; Table 3, single agent 4 mcg/ml): 6.8 Log10 CFU/ml
Bacterial count (Log10 CFU/ml) 4 hour ([2]; Table 3, single agent 4 mcg/ml): 7.0 Log10 CFU/ml
Bacterial count (Log10 CFU/ml) 6 hour ([2]; Table 3, single agent 4 mcg/ml): 7.3 Log10 CFU/ml
